Target: Beta-secretase 1 (Homo sapiens, UniProt P56817)
Sequence (P56817 whole entry): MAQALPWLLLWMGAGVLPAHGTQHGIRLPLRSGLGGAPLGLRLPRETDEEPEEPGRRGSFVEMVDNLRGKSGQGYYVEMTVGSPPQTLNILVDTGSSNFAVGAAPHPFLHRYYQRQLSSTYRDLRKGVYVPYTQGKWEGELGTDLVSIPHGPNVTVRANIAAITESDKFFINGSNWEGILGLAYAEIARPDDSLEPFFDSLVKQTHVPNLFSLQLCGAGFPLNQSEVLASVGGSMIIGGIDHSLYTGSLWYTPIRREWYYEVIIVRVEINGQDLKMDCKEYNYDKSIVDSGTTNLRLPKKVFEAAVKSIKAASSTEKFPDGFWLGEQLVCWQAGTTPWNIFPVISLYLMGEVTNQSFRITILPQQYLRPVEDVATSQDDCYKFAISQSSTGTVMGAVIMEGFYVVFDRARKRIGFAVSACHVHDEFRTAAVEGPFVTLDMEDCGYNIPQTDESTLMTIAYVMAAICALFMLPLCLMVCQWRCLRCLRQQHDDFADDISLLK
Description: Inhibition of BACE1 activity

Row | IC50 | SMILES
1 | 5900 nM | CN(c1cc(C(=O)N[C@@H](Cc2ccccc2)[C@H](O)CNC2CC2)cc(C(O)c2ccccc2)c1)S(C)(=O)=O (stereo partly drawn)
2 | 4630 nM | CN(c1cc(Cc2ccccc2)cc(C(=O)N[C@@H](Cc2ccccc2)[C@H](O)CNC2CC2)c1)S(C)(=O)=O
3 | 5500 nM | CN(c1cc(C(=O)N[C@@H](Cc2ccccc2)[C@H](O)CNC2CC2)cc(C(O)Cc2ccccc2)c1)S(C)(=O)=O (stereo partly drawn)
4 | 1400 nM | CN(c1cc(C(=O)Cc2ccccc2)cc(C(=O)N[C@@H](Cc2ccccc2)[C@H](O)CNC2CC2)c1)S(C)(=O)=O
5 | 730 nM | CN(c1cc(/C=C/C2CC2)cc(C(=O)N[C@@H](Cc2ccccc2)[C@H](O)CNC2CC2)c1)S(C)(=O)=O
6 | 1300 nM | C=C(c1ccccc1)c1cc(C(=O)N[C@@H](Cc2ccccc2)[C@H](O)CNC2CC2)cc(N(C)S(C)(=O)=O)c1
7 | 980 nM | CNC(=O)c1cc(C(=O)N[C@@H](Cc2ccccc2)[C@H](O)CNC2CC2)cc(N(C)S(C)(=O)=O)c1
8 | 35 nM | CN(c1cc(/C=C\C2CC2)cc(C(=O)N[C@@H](Cc2ccccc2)[C@H](O)CNC2CC2)c1)S(C)(=O)=O
9 | 1500 nM | CCC(=O)c1cc(C(=O)N[C@@H](Cc2ccccc2)[C@H](O)CNC2CC2)cc(N(C)S(C)(=O)=O)c1

Row | SMILES | IC50
10 | CC(C)C(=O)c1cc(C(=O)N[C@@H](Cc2ccccc2)[C@H](O)CNC2CC2)cc(N(C)S(C)(=O)=O)c1 | 240 nM
11 | CN(c1cc(C(=O)N[C@@H](Cc2ccccc2)[C@H](O)CNC2CC2)cc(C(=O)C2CCCC2)c1)S(C)(=O)=O | 180 nM
12 | CN(c1cc(C(=O)N[C@@H](Cc2ccccc2)[C@H](O)CNC2CC2)cc(C(=O)C2CCCCC2)c1)S(C)(=O)=O | 450 nM
13 | CN(c1cc(CCC2CC2)cc(C(=O)N[C@@H](Cc2ccccc2)[C@H](O)CNC2CC2)c1)S(C)(=O)=O | 420 nM
